In PMC6246607, “Novel AR-12 derivatives, P12-23 and P12-34, inhibit flavivirus replication by blocking host de novo pyrimidine biosynthesis” (Emerging Microbes & Infections, 2018):
“And” between values parts separate entries of the source, which are not always exact repeats. Identical values can stand only once.

What was measured:
[1] = LDH release cytotoxicity assay; assay type: cell-based, human; settings: human, A549 cells
Procedure: (§1) Cells were treated with compounds at the indicated concentrations for 24 h. The release of lactate dehydrogenase (LDH) was measured using a Cytotoxicity Detection Kit (Roche, Basel, Switzerland) after removing cell debris. Cells treated with 1% Triton X-100 were used to determine the maximal LDH release.

[2] = tested on: A549 cells; assay: LDH release cytotoxicity assay; assay type: cell-based, human; settings: 24 h; for CC50: A549 cells; for noncytotoxic concentrations: human A549 cells
Procedure: as §1

[3] = tested on: DENV-2-eGFP; assay: microbe, parasite or virus in culture; assay type: cell-based, dengue virus; settings: for SI (CC50/IC50): DENV-2-eGFP; for IC50: Dengue virus, DENV2, A549, 24 h
Procedure: (§2) Approximately 50% of confluent cells seeded in 96-well plates were infected with viruses in the presence of drugs or DMSO as a solvent control. At 24 h post-infection (hpi), cells were fixed with 4% paraformaldehyde at room temperature (RT) for 20 min, permeated with a 0.5% Triton X-100 buffer for 2 min, and blocked with 3% BSA for 30 min. Nuclei were stained with DAPI (Sigma) at RT for 20 min. Viral NS3 was stained with a mouse anti-NS3 monoclonal antibody (mAb)[47] followed by staining with an Alexa Fluor 488-conjugated goat anti-mouse IgG antibody (ThermoFisher) at RT for 1 h. Nine images from different fields per well were acquired and analyzed using an ImageXpress Micro XLS Widefield High-Content Analysis System (Molecular Devices, Sunnyvale, USA). To quantify viral infection, the fluorescence intensities of viral NS3 or eGFP from the reporter virus were measured using MetaXpress® (Molecular Devices, Sunnyvale, USA) and were calculated with a mock control (infection as 0%) and a DMSO solvent control (infection as 100%).

[4] = tested on: JEV-eGFP; assay: microbe, parasite or virus in culture; assay type: cell-based, Japanese encephalitis virus; settings: for relative potency versus AR-12 (fold): JEV; for SI (CC50/IC50): JEV-eGFP; for IC50: Japanese encephalitis virus, A549, 24 h
Procedure: as §2

[5] = tested on: ZIKV; assay: High-content image analysis of ZIKV infection (NS3) in A549 cells; assay type: cell-based, Zika virus; settings: for SI (CC50/IC50) / relative potency versus AR-12 (fold) / IC50: ZIKV; for IC50: Zika virus, MOI 0.5, A549 cells, 24 h
Procedure: as §2

[6] = tested on: DENV-2; assay: Viral binding assay; assay type: cell-based, dengue virus; settings: 1 µM, A549 cells, DENV-2 MOI 5, 4 °C 1 h
Procedure: A549 cells and DENV-2 separately pretreated with P12-23 (1 µM), P12-34 (1 µM) or heparin (100 unit/ml) at 37 ℃ for 1 h were mixed to allow for viral adsorption at a multiplicity of infection (MOI) of 5 at 4 °C for 1 h. After washing off unbound viruses, RNA was extracted using an RNeasy® Mini Kit (QIAGEN, Hilden, Germany), and viral titers were quantified by real-time RT-PCR as previously described[48] using DENV-2 primers (5′-[…]-3′ and 5′-[…]-3′) and β-actin primers (5′-[…]-3′ and 5′-[…]-3′). After the RNA was normalized to the internal control in each sample, the relative level of viral RNA was determined using the DMSO solvent control.

[7] = tested on: DENV-2; assay: Viral entry assay; assay type: cell-based, dengue virus; settings: 1 µM, A549 cells, DENV-2 MOI 5
Procedure: A549 cells pretreated with P12-23 (1 µM), P12-34 (1 µM) or Pitstop®2 (5 µM) at 37 ℃ for 1 h were absorbed with DENV-2 (MOI 5) at 4 °C for 1 h. After removing the unbound viruses, cells were shifted to 37 ℃ for 30 min for viral entry. The cell surface-associated viruses were then removed by treatment with trypsin-EDTA (ThermoFisher) at 37 °C for 10 min. Viral entry indicated by E protein positivity was determined using a BD FACSCalibur Flow Cytometer (BD) after immunofluorescent staining with an anti-E mAb[47].

[8] = tested on: DENV-2; assay: Viral translation assay (NS3 western blot); assay type: cell-based, dengue virus; settings: 1 µM added at 1 hpi, A549 cells, DENV-2 MOI 20
Procedure: A549 cells absorbed with DENV-2 (MOI 20) at 4 °C for 1 h were washed to remove unbound viruses. After incubating at 37 °C for 1 h to allow viral entry, cells were treated with P12-23 (1 µM), P12-34 (1 µM) or 2′-c-methyladenosine (20 µM). Cells were harvested at 2, 3, 4, and 6 hpi for western blot analysis as previously described[46] with an anti-NS3 mAb[47] and an anti-actin mAb (NB600-501; Novus Biologicals, Littleton, CO, USA). Protein expression levels were quantified using ImageJ.

[9] = tested on: DENV-2; assay: Viral RNA replication assay (RT-qPCR); assay type: cell-based, dengue virus; settings: 1 µM added at 1 hpi versus 2′CMA 20 µM, A549 cells, DENV-2 MOI 5
Procedure: Viral infection (MOI 5) and drug treatment were performed as described for the virus translation assay. Cells were harvested for real-time RT-PCR analysis after removing the cell-free viruses at 1, 2, 3, 6, 9, 12, 18, and 27 hpi. Viral RNA was quantified and normalized with actin RNA as described for the virus binding assay.

[10] = tested on: A549 cells; assay: ER stress and autophagy western blot in A549 cells; assay type: cell-based, human; settings: 1 µM, 24 h
Procedure: Supplementary figure 2. […] A549 cells with or without DENV-2 (MOI 5) infection were treated with P12-23 (1 μM), tunicamycin (TM) (5 μg/ml), thapsigargin (TG) (0.5 μM), or chemical chaperon 4-Phenylbutyric acid (4-PBA) (10 mM) for 24 h. Cell lysates were harvested for western blot analysis with antibodies against the indicated proteins.

[11] = tested on: DENV-1; assay: High-content image analysis of DENV-1 infection (NS3) in A549 cells; assay type: cell-based, dengue virus
Procedure: as §2

[12] = tested on: DENV-2; assay: High-content image analysis of DENV-2 infection (NS3) in A549 cells; assay type: cell-based, dengue virus
Procedure: as §2

[13] = tested on: DENV-3; assay: High-content image analysis of DENV-3 infection (NS3) in A549 cells; assay type: cell-based, dengue virus
Procedure: as §2

[14] = tested on: DENV-4; assay: High-content image analysis of DENV-4 infection (NS3) in A549 cells; assay type: cell-based, dengue virus
Procedure: as §2

[15] = tested on: wild-type DENV (DENV1-4); assay: High-content image analysis, all four serotypes of wild-type DENV in A549 cells; assay type: cell-based; settings: Dengue virus, DENV1, A549, read-out: IC50 range over the four serotypes
Procedure: as §2

[16] = molecular target: T1, DHODH (Homo sapiens, UniProt Q02127); assay: BP12-34 pull-down, DHODH; assay type: binding; settings: BP12-34 0.25 or 0.5 µM pull-down, A549 cell lysates
T1 construct: endogenous in cells; host or cells: A549 cell lysate
T1 sequence (Q02127 whole entry): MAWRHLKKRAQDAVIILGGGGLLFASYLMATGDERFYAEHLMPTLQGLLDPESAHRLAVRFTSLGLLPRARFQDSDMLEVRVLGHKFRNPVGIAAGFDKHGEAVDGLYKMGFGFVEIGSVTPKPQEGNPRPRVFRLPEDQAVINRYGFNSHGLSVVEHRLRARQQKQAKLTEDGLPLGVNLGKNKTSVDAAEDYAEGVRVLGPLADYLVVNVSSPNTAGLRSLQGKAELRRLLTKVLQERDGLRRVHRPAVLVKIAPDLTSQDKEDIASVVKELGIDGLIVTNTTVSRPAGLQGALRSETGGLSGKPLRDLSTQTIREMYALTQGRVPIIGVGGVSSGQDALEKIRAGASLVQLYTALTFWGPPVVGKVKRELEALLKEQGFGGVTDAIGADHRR
Procedure: (§3) Supplementary figure 4. P12-34 interacts with cytochrome bc1 complex. Cell lysates of A549 were treated with 0.25 μM (+) or 0.5 μM (++) BP12-34 at 4 ℃ for 1 h, then incubated with streptavidin (SA) beads at 4 ℃ for 30 min. Non-specific binding was removed by washing with PBS. After precipitation, P12-34-associated proteins were analyzed by western blot with the indicated antibodies against DHODH and cytochrome bc1 complex.

[17] = molecular target: T2, cytochrome bc1 complex (Homo sapiens, UniProt P00156+P22695+P31930); assay: BP12-34 pull-down, cytochrome bc1 complex; assay type: binding; settings: BP12-34 0.25 or 0.5 µM pull-down, A549 cell lysates
T2 construct: endogenous in cells; host or cells: A549 cell lysate
Procedure: as §3

[18] = tested on: interferon (IFN)-stimulated response element (ISRE) reporter; assay: ISRE reporter assay and IFN-stimulated gene expression in HEK 293T cells; assay type: cell-based, human; settings: 1 µM, 24 h
Procedure: Short synthetic 5′-triphosphate RNA molecules (ssRNA) was synthesized with use of the RiboMAX™ Large Scale RNA Production Kit (P1280, Promega) from control DNA template in the kit, then extracted with the RNeasy® Mini Kit (QIAGEN). About 80% confluent HEK 293T cells in 48 well-plate were co-transfected with pISRE-Luc (Stratagene, Ref 219089) (10 ng/well) and pRL-TK Renilla reporter plasmids (E2241, Promega) (2 ng/well), and increasing doses of ssRNA, then treated with DMSO, 1 μM brequinar, or 1 μM P12-34 for 24h. The luciferase activities were analyzed by using the Dual-Luciferase® Reporter Assay Kit (Promega) and SpectraMax L Microplate Reader (Molecular devices, San Jose, CA, USA). ISRE-Luciferase activity was firstly normalized with Renilla-luciferase activity, then normalized with DMSO control without ssRNA.
Supplementary figure 5. P12-34 amplifies innate immune response. (a) HEK 293T cells were co-transfected with pISRE-luc and pRL-TK Renilla reporter plasmids, and short synthetic 5′-triphosphate RNA molecules (ssRNA), then treated with DMSO, brequinar (1 μM), or P12-34 (1 μM) for 24 h. ISRE-Luciferase activity was normalized with Renilla-luciferase activity in each sample, and then the relative ISRE-Luc level was determined with the DMSO control without ssRNA. Representative data from repeated experiments are shown as mean and SD (n =3). […]

[19] = tested on: DENV-2 (mouse-adaptive NGC strain); assay: DENV challenge of Stat1-/- mice; assay type: in vivo
Procedure: Animal studies followed the guidelines of the Academia Sinica Institutional Animal Care and Use Committee. Five-week-old Stat1^−/− mice were subcutaneously challenged with 1 × 10^5 plaque-forming units (PFU) of DENV-2 (mouse-adaptive NGC strain)[29]. P12-34 (2.5 mg/kg per day in 500 µl PBS containing 10% DMSO) or vehicle control was intraperitoneally injected into DENV-2-infected mice for the first 6 days. At 1, 3, 5 and 7 days post-inoculation (dpi), the viral loads in sera were determined by RT-qPCR as previously described.

[20] = P12-34 1 µM, uridine 50 µg/ml, A549 cells

Structure (SMILES) | CC50 at 24 h [1] | CC50 [2] | noncytotoxic concentrations [2] | SI (CC50/IC50) ([3]; A549 cells) | IC50 [3] | relative potency versus AR-12 (fold) ([4]; A549 cells) | SI (CC50/IC50) ([4]; A549 cells) | IC50 [4] | SI (CC50/IC50) ([5]; A549 cells) | relative potency versus AR-12 (fold) ([5]; A549 cells) | IC50 [5] | effect on viral binding [6] | effect on viral entry [7] | effect on NS3 levels at early stage of infection (viral translation) [8] | suppression of intracellular viral RNA replication [9] | other results
CC(C)(N)C(=O)Nc1ccc(-n2cc(C(F)(F)F)cc2-c2ccc3c(ccc4ccccc43)c2)cc1 [P12-23] | ~20000 nM | 20500 ± 100 nM | ≤ 12.5 µM | 297 and 296.7 ± 35.1 | 69.7 ± 8.9 nM | ~ 10 fold | 385.5 ± 11.8 | 53.2 ± 1.6 nM | 158 ± 13.6 | ~ 10 fold | 130 ± 11.7 nM | no suppressive effect | no suppressive effect | did not reduce NS3 levels until 4~6 h post-infection | more potent than 2′CMA | induction of ER stress (GRP78, eIF2α phosphorylation) or autophagy (LC3B form II) [10]: did not significantly induce ER stress
N[C@@H](Cc1ccccc1)C(=O)Nc1ccc(-n2cc(C(F)(F)F)cc2-c2ccc3c(ccc4ccccc43)c2)cc1 [P12-34] | ~20000 nM | 20300 ± 200 nM | ≤ 12.5 µM | 388 and 387.9 ± 14.7 | 52.1 ± 2 nM | ~ 10 fold | 360.3 ± 3.1 | 56.1 ± 0.5 nM | 171.4 ± 16.1 | ~ 10 fold | 119 ± 11.7 nM | no suppressive effect | no suppressive effect | did not reduce NS3 levels until 4~6 h post-infection | more potent than 2′CMA | suppressive effect on DENV replication with added Oro or DHO ([3]; P12-34 1 µM, A549 cells, DENV-2-eGFP MOI 5): addition of Oro but not DHO could block the suppressive effect; anti-DENV activity in mitochondria-depleted cells ([3]; ρ0 A549 cells, DENV-2-eGFP MOI 5, 24 h): lost; suppression of JEV replication with uridine supplement [4, 20]: this effect of uridine was also noted; suppression of ZIKV replication with uridine supplement [5, 20]: this effect of uridine was also noted; SI (CC50/IC50) ([11]; DENV-1, A549 cells): 206.3 ± 3.5; IC50 ([11]; Dengue virus, DENV1, A549, 24 h): 98 ± 1.7 nM; SI (CC50/IC50) ([12]; DENV-2, A549 cells): 326.5 ± 26.4; IC50 ([12]; Dengue virus, DENV2, A549, 24 h): 62.2 ± 4.9 nM; SI (CC50/IC50) ([13]; DENV-3, A549 cells): 223.4 ± 8.6; IC50 ([13]; Dengue virus, DENV3, A549, 24 h): 90.6 ± 3.4 nM; SI (CC50/IC50) ([14]; DENV-4, A549 cells): 317.8 ± 24.9; IC50 ([14]; Dengue virus, DENV4, A549, 24 h): 63.9 ± 5.1 nM; IC50 [15]: 62 to 98 nM; interaction with DHODH [16]: did not appear to interact with DHODH; binding to cytochrome bc1 complex [17]: bind cytochrome bc1 complex in a dose-dependent manner; innate immune responses triggered by ssRNA (ISRE reporter, IFIT1, IRF-1) [18]: enhanced the innate immune responses; mice alive at 39 dpi ([19]; Stat1-/- mice, subcutaneous DENV-2 challenge, 2.5 mg/kg per day i.p. for first 6 days, n = 5): 60%; viral genome copy numbers in sera ([19]; Stat1-/- mice, subcutaneous DENV-2 challenge, 2.5 mg/kg per day i.p., especially at 3 dpi): significantly reduced; protection against DENV challenge injected intraperitoneally ([19]; virus injected intraperitoneally, data not shown): did not protect mice
Cc1c(-c2ccc(-c3ccccc3F)cc2)nc2ccc(F)cc2c1C(=O)O [brequinar, reference compound] | – | – | – | – | – | – | – | – | – | – | – | – | – | – | – | effect on DENV replication ([3]; A549 cells, DENV-2-eGFP MOI 5, reversed by exogenous uridine 50 µg/ml): reduced DENV replication in a dose-dependent manner
